Test results published in PubChem BioAssay AID1963980 (Molecular Pharmacology Branch, DTP, NCI, 2024).

Tested on: 475296-252-R-J1-PDC spheroid viability
Test: Anticancer human tumor 475296-252-R-J1-PDC patient-derived rectal carcinoma cell line growth inhibition [PI3K]
Settings: spheroids with HUVEC and MSC; for IC50: curve of first compound; for viability, T/C: stronger effect = lower value
Source text: Combinatorial screen of targeted agents with the PI3K inhibitors inavolisib, alpelisib, duvelisib, and copanlisib in multi-cell type tumor spheroids
A high-throughput screen of multi-cell type tumor spheroids was designed to identify active combinations of targeted small molecules and PI3K pathway inhibitors. Complex spheroids include a stromal component modeled by human endothelial cells (HUVEC) and fibroblasts modeled by human mesenchymal stem cells (MSCs). The concentration ranges selected for each drug and investigational agent were based upon clinically achievable concentrations if the clinical Cmax of the agent was known.
Compounds. The drugs and investigational agents: inavolisib (NSC800729), alpelisib (NSC765974), duvelisib (NSC772469), copanlisib (NSC816437), ipatasertib (NSC767898), afuresertib (NSC778305), talazoparib (NSC767125), sapanisertib (NSC764658), selumetinib (NSC741078), tovorafenib (DAY101, NSC766906), vemurafenib (NSC761431), ravoxertinib (NSC781343), sotorasib (NSC818433), MRTX1133 (NSC 836407), abemaciclib (NSC 768073), palbociclib (NSC758247), venetoclax (NSC 766270), SY5609 (NSC837396), enzalutamide (NSC755605), and darolutamide (NSC825331), were obtained from the National Cancer Institute (NCI) Developmental Therapeutics Program Chemical Repository. The FDA-approved anticancer drug set is available from the NCI Developmental Therapeutics Program. […] The stock solutions were prepared in dimethyl sulfoxide (DMSO, Sigma-Aldrich, St. Louis, MO, cat. D2650) at 800-fold the tested concentration and stored at -70 degrees C prior to their use. All drugs and investigational agents were tested over a range starting from a high concentration at or near the clinical Cmax and decreasing in half-log increments. If the clinical Cmax for an agent had not been determined, the highest concentration tested was 10 microM.
Cell Culture. All cells were maintained in an incubator at 37 degrees C and 5% CO2 with 95% humidity. The PDC lines were cultured according to standard operating procedures established by the NCI PDMR (https://pdmr.cancer.gov/sops/default.htm). All PDCs were thawed and cultured in Matrigel-coated flasks prepared with a working solution of 1X Ham's F-12 nutrient mix, without supplementation (Invitrogen, Waltham, MA, cat. 11765054), 100 U/mL penicillin-streptomycin (Invitrogen, cat. 15140122), and 2.5% Matrigel (Corning Inc., Corning, NY, cat. 354248) for the first three passages. The 354836-022-R-J1-PDC, 475296-252-R-J1-PDC, and 997726-040-R-J2-PDC lines were cultured in 6A media, which includes advanced DMEM/F-12 (Thermo Fisher Scientific, cat. 12634028), 10 mM HEPES (Thermo Fisher Scientific, cat. 15630080), 1X GlutaMAX supplement (Thermo Fisher Scientific, cat. 35050061), 0.1 mg/mL primocin (InvivoGen, San Diego, CA, cat. ant-pm-2), 10% defined fetal bovine serum, heat inactivated (HyClone Laboratories Inc., Logan, UT, cat. SH30070.03HI), 50% L-WRN conditioned media (ATCC, cat. CRL-3276), 1.25 mM N-Acetyl-L-cysteine (Sigma-Aldrich, cat. A9165), 10 mM nicotinamide (Sigma-Aldrich, cat. N0636), 1X B-27 supplement (Thermo Fisher Scientific, cat. 17504044), 1X N-2 supplement (Thermo Fisher Scientific, cat. 17502048), and 10 microM Y-27632 dihydrochloride (Tocris Bioscience, Bristol, United Kingdom, cat. 1254). The 624824-186-R-J2-PDC line was cultured in 6C/Colon 1B media, which includes all 6A media components plus 50 ng/mL human EGF recombinant protein (Thermo Fisher Scientific, cat. PHG0311). […]

[1] = second compound 0.00316 µM, first compound 0.0316 µM
[2] = second compound 0.00316 µM, first compound 0.1 µM
[3] = second compound 0.01 µM, first compound 0.0316 µM
[4] = second compound 0.01 µM, first compound 0.1 µM
[5] = second compound 0.0316 µM, first compound 0.0316 µM
[6] = second compound 0.0316 µM, first compound 0.1 µM
[7] = second compound 0.1 µM, first compound 0.0316 µM
[8] = second compound 0.1 µM, first compound 0.1 µM
[9] = second compound 0.316 µM, first compound 0.0316 µM
[10] = second compound 0.316 µM, first compound 0.1 µM
[11] = second compound 1 µM, first compound 0.0316 µM
[12] = second compound 1 µM, first compound 0.1 µM
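Further: spheroids exposed to agents for seven days before readout.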

Work on CC(C)n1nc(-c2ccc3oc(N)nc3c2)c2c(N)ncnc21 + CC(Nc1ccc2c(c1)OCCn1cc(N3C(=O)OCC3C(F)F)nc1-2)C(N)=O yielded an IC50 (second compound 0.00316 µM) of over 0.1 µM, an IC50 (second compound 0.01 µM) of over 0.1 µM and an IC50 (second compound 0.0316 µM) of over 0.1 µM. It also gave an IC50 (second compound 0.1 µM) of over 0.1 µM, an IC50 (second compound 0.316 µM) of over 0.1 µM and an IC50 (second compound 1 µM) of over 0.1 µM. For the same molecule, the viability, T/C (second compound 0.00316 µM, first compound 0.000316 µM) was 91%, the viability, T/C (second compound 0.00316 µM, first compound 0.001 µM) was 83.2% and the viability, T/C (second compound 0.00316 µM, first compound 0.00316 µM) was 89.2%. The viability, T/C (second compound 0.00316 µM, first compound 0.01 µM) was 73.2%, the viability, T/C [1] was 74.9% and the viability, T/C [2] was 58.7%. For the same molecule, the viability, T/C (second compound 0.01 µM, first compound 0.000316 µM) was 97.3%, the viability, T/C (second compound 0.01 µM, first compound 0.001 µM) was 81.5% and the viability, T/C (second compound 0.01 µM, first compound 0.00316 µM) was 95.1%. For the same molecule, the viability, T/C (second compound 0.01 µM, first compound 0.01 µM) was 85.7%, the viability, T/C [3] was 82.3% and the viability, T/C [4] was 61.4%. The viability, T/C (second compound 0.0316 µM, first compound 0.000316 µM) was 85.5%, the viability, T/C (second compound 0.0316 µM, first compound 0.001 µM) was 113% and the viability, T/C (second compound 0.0316 µM, first compound 0.00316 µM) was 94.8%. It also gave a viability, T/C (second compound 0.0316 µM, first compound 0.01 µM) of 89.8%, a viability, T/C [5] of 77.7% and a viability, T/C [6] of 58%. It also gave a viability, T/C (second compound 0.1 µM, first compound 0.000316 µM) of 83.5%, a viability, T/C (second compound 0.1 µM, first compound 0.001 µM) of 88% and a viability, T/C (second compound 0.1 µM, first compound 0.00316 µM) of 92%. The viability, T/C (second compound 0.1 µM, first compound 0.01 µM) was 88.6%, the viability, T/C [7] was 77% and the viability, T/C [8] was 59.6%. The viability, T/C (second compound 0.316 µM, first compound 0.000316 µM) was 83.8%, the viability, T/C (second compound 0.316 µM, first compound 0.001 µM) was 89% and the viability, T/C (second compound 0.316 µM, first compound 0.00316 µM) was 88.8%. It also gave a viability, T/C (second compound 0.316 µM, first compound 0.01 µM) of 82.7%, a viability, T/C [9] of 74% and a viability, T/C [10] of 58.7%. It also gave a viability, T/C (second compound 1 µM, first compound 0.000316 µM) of 87.4%, a viability, T/C (second compound 1 µM, first compound 0.001 µM) of 83.3% and a viability, T/C (second compound 1 µM, first compound 0.00316 µM) of 83%. It also gave a viability, T/C (second compound 1 µM, first compound 0.01 µM) of 85.8%, a viability, T/C [11] of 71.1% and a viability, T/C [12] of 55.2%.

CCCS(=O)(=O)Nc1ccc(F)c(C(=O)c2c[nH]c3ncc(-c4ccc(Cl)cc4)cc23)c1F + CC(Nc1ccc2c(c1)OCCn1cc(N3C(=O)OCC3C(F)F)nc1-2)C(N)=O gave an IC50 (second compound 0.00316 µM) of over 10 µM, an IC50 (second compound 0.01 µM) of over 10 µM and an IC50 (second compound 0.0316 µM) of over 10 µM. It also gave an IC50 (second compound 0.1 µM) of over 10 µM, an IC50 (second compound 0.316 µM) of over 10 µM and an IC50 (second compound 1 µM) of over 10 µM. The viability, T/C [1] was 84.5%, the viability, T/C [2] was 84.3% and the viability, T/C (second compound 0.00316 µM, first compound 0.316 µM) was 81.7%. It also gave a viability, T/C (second compound 0.00316 µM, first compound 1 µM) of 85.2%, a viability, T/C (second compound 0.00316 µM, first compound 3.16 µM) of 92.6% and a viability, T/C (second compound 0.00316 µM, first compound 10 µM) of 101%. For the same molecule, the viability, T/C [3] was 102%, the viability, T/C [4] was 89% and the viability, T/C (second compound 0.01 µM, first compound 0.316 µM) was 90.4%. It also gave a viability, T/C (second compound 0.01 µM, first compound 1 µM) of 83.2%, a viability, T/C (second compound 0.01 µM, first compound 3.16 µM) of 82.6% and a viability, T/C (second compound 0.01 µM, first compound 10 µM) of 91.7%. It also gave a viability, T/C [5] of 97.5%, a viability, T/C [6] of 94.8% and a viability, T/C (second compound 0.0316 µM, first compound 0.316 µM) of 96.8%. For the same molecule, the viability, T/C (second compound 0.0316 µM, first compound 1 µM) was 89.8%, the viability, T/C (second compound 0.0316 µM, first compound 3.16 µM) was 75.9% and the viability, T/C (second compound 0.0316 µM, first compound 10 µM) was 88.3%. It also gave a viability, T/C [7] of 83.8%, a viability, T/C [8] of 96.6% and a viability, T/C (second compound 0.1 µM, first compound 0.316 µM) of 89.6%. The viability, T/C (second compound 0.1 µM, first compound 1 µM) was 84.5%, the viability, T/C (second compound 0.1 µM, first compound 3.16 µM) was 81.4% and the viability, T/C (second compound 0.1 µM, first compound 10 µM) was 81.9%. For the same molecule, the viability, T/C [9] was 77.4%, the viability, T/C [10] was 94.5% and the viability, T/C (second compound 0.316 µM, first compound 0.316 µM) was 89.5%. For the same molecule, the viability, T/C (second compound 0.316 µM, first compound 1 µM) was 79.1%, the viability, T/C (second compound 0.316 µM, first compound 3.16 µM) was 81.4% and the viability, T/C (second compound 0.316 µM, first compound 10 µM) was 70.4%. The viability, T/C [11] was 90.7%, the viability, T/C [12] was 92.6% and the viability, T/C (second compound 1 µM, first compound 0.316 µM) was 80.4%. The viability, T/C (second compound 1 µM, first compound 1 µM) was 90.3%, the viability, T/C (second compound 1 µM, first compound 3.16 µM) was 83.1% and the viability, T/C (second compound 1 µM, first compound 10 µM) was 72.7%.
